According to ChEMBL document CHEMBL3507680, “University of Dundee, Gates Library screen for HepG2 cell viability”:

Experiment: Human HepG2 cell viability assay in 384 well format
Format: toxicity, cell-based
Parameters: dose 125 nL, time 70.5 hour; cytotoxicity at 70.5 h: concentration not given beside the values
Details: HepG2 cells, read-out: Inhibition

Row | SMILES | cytotoxicity at 70.5 h
1 | CC(C)Oc1cccc(C(=O)C2CCCN(S(=O)(=O)C(C)C)C2)c1 (stereo not drawn) | -7.26%
2 | CCC(NS(=O)(=O)c1ccc(C(=O)NC2CC2)cc1)c1ccnn1C (stereo not drawn) | -7.49%
3 | CCc1oc(C(=O)N[C@@H]2c3ccccc3C[C@@H]2O)cc1CN1CCCC1 | -6.15%
4 | c1cncc(Cc2nnc3n2CCN(CC2CCCNC2)CC3)c1 (stereo not drawn) | -14%
5 | CCN1CCCC1CNC(=O)CCSc1ccc2c(c1)OCCO2 (stereo not drawn) | 2.47%
6 | Cc1nc(-c2cccnc2)ncc1C(=O)N1CCCCC(N)C1 (stereo not drawn) | -23.9%
7 | CC(C)N1CCC(CN2CCn3nc(CNC(=O)N(C)C)cc3C2)CC1 | 4.16%
8 | O=C(NCCCN1CCOCC1)C1CCCN(Cc2ccco2)C1 (stereo not drawn) | -1.31%
9 | Cc1cc(CNc2nccc(N)n2)c2[nH]c(C)c(C)c2c1 | 1.64%
10 | c1cc(-c2ccn(CCN3CCCC3)n2)cc(-c2nccs2)c1 | -6.38%
11 | O=C(C1CCC1)N1CCCn2nc(CNc3ncccn3)cc2C1 | 1.42%
12 | Cc1nn(C)c2nc(N3CCCC3c3nccs3)sc12 (stereo not drawn) | -12.1%
13 | CCN(CCn1cccn1)C(=O)CN1C(=O)OC[C@@H]1c1ccccc1 | -6.78%
14 | O=C(NCc1cn2cccnc2n1)C1CC(=O)N(Cc2ccccn2)C1 (stereo not drawn) | -6.73%
15 | C[C@@H]1CN(S(=O)(=O)N2CCCCCC2)C[C@@]1(O)C1CCC1 | -8.97%
16 | Cc1ccccc1OCC1CCCN(c2cc(N)nc(N)n2)C1 (stereo not drawn) | -8.34%
17 | CCc1c(C(=O)N2CC[C@H](N3CCOCC3)[C@H](CCCO)C2)csc1C | -20.4%
18 | CCN(Cc1noc(CC(C)C)n1)Cc1cccc(F)c1O | 12.8%
19 | CC(C)c1nnsc1CNC(=O)C1CCN(C(=O)C2CCCC2)CC1 | 12%
20 | CCN1CC2(CCC1=O)CCN(Cc1cscn1)CC2 | -10.8%
21 | CCOC(=O)N1CCN(c2nc(CCN)nc3sc(C)c(C)c23)CC1 | 1.12%
22 | COc1ccc(C)cc1C(=O)N1C[C@@H](CN(C)CCO)[C@@H](CO)C1 | 0.0463%
23 | NC(=O)[C@@H]1CCCN1C(=O)c1csc(-c2ccc(C(F)(F)F)cc2)n1 | 20.6%

Row | SMILES | cytotoxicity at 70.5 h
24 | CN(Cc1cc(-c2ccncc2)no1)C(=O)[C@@H]1CSCN1C | -13.1%
25 | Cc1cc(N2CCN(C3CCSCC3)CC2)n2nc(C)c(C)c2n1 | -5.2%
26 | CC(=O)N1CCc2c(nc(N(C)C)nc2NCCCn2ccnc2)C1 | -8.48%
27 | CCc1nc(C)c(C2CC(=O)Nc3c2c(-c2cccnc2)nn3C)[nH]1 (stereo not drawn) | -5.87%
28 | O=C(c1ccccc1)N1C[C@@H]2CC[C@H](C1)N(C(=O)CN1CCOCC1)C2 | 3.79%
29 | N[C@@H]1CC[C@@H]1NC(=O)c1ccccc1OC(F)(F)C(F)F | 3.75%
30 | Cc1nnc(CN2C[C@H](NC(=O)CC3CCCC3)[C@@H](C3CC3)C2)s1 | -7.74%
31 | Cn1ccnc1C(=O)N1CCC(Cn2cc(-c3ccsc3)nn2)CC1 | -8.29%
32 | CCCOC1CCCN(C(=O)c2ccnnc2)C1 (stereo not drawn) | -2.27%
33 | CC(C)c1nc(CN(C)C(=O)CCNC(=O)c2ccccc2F)no1 | 19.8%
34 | CC(=O)N1CCN(Cc2ccc(Cl)c(F)c2)CC(O)C1 (stereo not drawn) | 17.8%
35 | O=S1(=O)COCCN1CCOc1ccc(F)cc1 | -5.2%
36 | Cc1noc(C)c1-c1n[nH]c2c1CN(S(=O)(=O)c1cccs1)CC2 | 0.699%
37 | c1ccc(CCn2cc(-c3nc(CN4CCOCC4)no3)nn2)cc1 | -6.91%
38 | O=C(Cn1nc2ccccc2n1)N1CCCC(O)(CO)C1 (stereo not drawn) | 6.64%
39 | CN(C)C(=O)c1ccc(C(C(=O)O)N(C)Cc2ccccc2Cl)cc1 (stereo not drawn) | -8.81%
40 | Nc1cc(C(=O)NC2CCCN(CCCc3ccccc3)C2)ccn1 (stereo not drawn) | 12.3%
41 | Cc1nccc(-c2ccccc2)c1C(=O)N1CC[C@](C)(O)[C@H](C)C1 | 13.7%
42 | O=C(c1ccc(CNC2CCSC2)cc1)N1CCCC1 (stereo not drawn) | -0.303%
43 | CCN(C)C[C@@H]1CN(S(=O)(=O)c2cccc(Cl)c2)C[C@@H]1CO | 2.35%
44 | CCCc1nc(C(=O)N(C)Cc2cc(CC)no2)cs1 | 0.552%
45 | O=C(c1ncc[nH]1)N1CCC(n2cc(-c3cccc(Cl)c3)nn2)CC1 | 8.61%
46 | CNC(=O)[C@@H]1C[C@@H](N)CN1C1CCN(c2ccccc2F)CC1 | -7.57%

Row | SMILES | cytotoxicity at 70.5 h
47 | Cc1n[nH]c(C)c1-c1cc(-c2ccc[nH]2)nc(N)c1C#N | -10.2%
48 | CCC(Nc1nc(C(C)C)nc2c1cnn2C)c1ccncc1 (stereo not drawn) | -7.7%
49 | Cc1nn(C)c2nc(NCCOCCO)sc12 | -4.46%
50 | Cc1cccc(N2CCC3(CCCN3Cc3cnn(C)c3C)CC2)n1 | 2.08%
51 | CC(=O)c1c(C)nn(CC(=O)N2CCCC2c2ccc(C(N)=O)s2)c1C (stereo not drawn) | -2.76%
52 | O=C(O)c1cn(CC2CCCN(c3ccc4ccccc4n3)C2)nn1 (stereo not drawn) | -10.4%
53 | COC(=O)CCC(=O)N1CCc2[nH]nc(-c3ccc4c(c3)OCO4)c2C1 | -3.99%
54 | CN(C)C(C(=O)N1CCCC1)c1ccccc1F (stereo not drawn) | -1.96%
55 | CCn1c(CN(C)C)nnc1C1CCN(Cc2ccccc2)CC1 | -10.3%
56 | O=C1[C@H]2CC[C@H](CN(S(=O)(=O)c3ccccc3)C2)N1Cc1cscn1 | 8.27%
57 | CC(C)Oc1cc(N2CCC(N3CCC(O)CC3)CC2)nc(N)n1 | -7.04%
58 | Cc1ccc(C(NC(=O)CC2CCN(C(C)C)CC2)C(=O)O)cc1 (stereo not drawn) | -3.16%
59 | Cc1nn(C)cc1CNC(=O)c1cn(CCC2CCCCN2)nn1 (stereo not drawn) | -8.92%
60 | Cc1ncsc1CCC(=O)N1CCCC[C@H](N(C)C)C1 | 16.9%
61 | NC(=O)c1cccc(CC2CCN(C(=O)CO)C2)c1 (stereo not drawn) | -3%
62 | CCCNC(=O)N1CCC(Oc2cc(C)ccc2F)(C(=O)O)CC1 | 10.3%
63 | CCCN1CCCn2nc(CNC(=O)CCc3scnc3C)cc2C1 | -1.73%
64 | O=C1CCC2(CCN(Cc3cc(F)ccc3Cl)CC2)CN1C1CCCC1 | 3.22%
65 | COCCN1CCN(C(=O)c2cc(C(C)C)on2)[C@H]2CS(=O)(=O)C[C@H]21 | 2.11%
66 | CCNC(=O)[C@@H]1C[C@@H](NC(=O)Cc2ccncc2)CN1Cc1ccsc1 | -1.57%
67 | Cc1cc(C[C@@H]2COC[C@@H]2NC(=O)CN2CCCC2)on1 | -0.566%
68 | C[C@@H]1CN(C2(C(=O)N3CCCCCC3)Cc3ccccc3C2)C[C@H](C)O1 | -7.47%
69 | O=C(NC1CC(=O)N(Cc2cccc(F)c2)C1)c1ccncc1 (stereo not drawn) | -8.7%

Row | SMILES | cytotoxicity at 70.5 h
70 | COCCN1CCC(CN(CC2CCCO2)C(=O)CCNC(C)=O)CC1 (stereo not drawn) | -3.63%
71 | NC(=O)NCCC(=O)NCc1cccnc1N1CCc2ccccc2C1 | -11.6%
72 | COc1cc(N2CCCC(c3nccn3Cc3cscn3)C2)nc(N)n1 (stereo not drawn) | -8.38%
73 | CC(C)CCN1CCNC(=O)C1CC(=O)N1CCc2sccc2C1 (stereo not drawn) | -7.67%
74 | CCCn1c(C)c(CC(=O)N(C)CCOC)c2c1CC(C)(C)CC2=O | -7.09%
75 | COCCN(C)CCN1CC2(CCN(C(=O)C3CCOC3)CC2)OC1=O (stereo not drawn) | 17.4%
76 | CC(C)Nc1ncc(CN2C[C@@H](CN3CCC(O)CC3)[C@@H](CO)C2)cn1 | -3.95%
77 | COc1ccc(-c2nc(CN3CCOCS3(=O)=O)c(C)o2)cc1 | -0.0234%
78 | Cc1nnc(SCC(=O)N2CCC3(CC2)c2ccccc2CC3O)o1 (stereo not drawn) | 20.7%
79 | CC(C)c1noc(CN2CCC3(CCCO3)CCC2=O)n1 (stereo not drawn) | -0.624%
80 | CCSCCNC(=O)C(c1cccc(F)c1)N(C)C (stereo not drawn) | -6.8%
81 | CCC(=O)N1CCc2[nH]cnc2C12CCN(C(=O)c1snnc1C)CC2 | -10.6%
82 | Oc1cc(CCC2CCCCN2)cc(-c2ccncc2)c1 (stereo not drawn) | 17.4%
83 | CC(C)n1ccnc1C1CCCN(c2ccccn2)C1 (stereo not drawn) | -11.1%
84 | CN(Cc1ncc[nH]1)S(=O)(=O)c1cccc(C(=O)N2CCOCC2)c1 | -2.7%
85 | COc1cccc(C(=O)N2CCCC(C(=O)CCc3ccccc3)C2)c1 (stereo not drawn) | -0.206%
86 | N#Cc1cccnc1N1CCC2(CCCN(C3CCOCC3)C2=O)C1 (stereo not drawn) | -3.03%
87 | CCNC(=O)c1ccc(N2CCCC(c3nccn3C(C)C)C2)nc1 (stereo not drawn) | -10.3%
88 | c1ncn(CC2CCCCN2Cc2cn3ccsc3n2)n1 (stereo not drawn) | 5.43%
89 | CC(C)(C)c1cc(C(=O)NCCN2CCCS2(=O)=O)[nH]n1 | -14.3%
90 | Cc1cccc(C(CNC(=O)NCc2cc[nH]n2)N2CCOCC2)c1 (stereo not drawn) | -14.8%
91 | CC(C)Cc1cc(C(=O)NCCN2CCCS2(=O)=O)[nH]n1 | -10.6%
92 | NC(=O)C(NCc1nn(-c2ccccc2)c2c1CCC2)c1ccccc1 (stereo not drawn) | -10.6%

Row | SMILES | cytotoxicity at 70.5 h
93 | Cc1cc(CN2CCCCC2Cn2cncn2)no1 (stereo not drawn) | -12.8%
94 | CC(C)c1nc2c(n1C)CCN(Cc1cccc(C(N)=O)c1)C2 | -13.9%
95 | CCn1ccnc1CN1CCN(CC(O)c2ccco2)CC1 (stereo not drawn) | -5.46%
96 | Cc1cc(CN2CCCC2Cn2cccn2)no1 (stereo not drawn) | -10.2%
97 | Cc1cnn(CC2CCCCN2Cc2c(C)noc2C)c1 (stereo not drawn) | -14.5%
98 | CCn1nc2c(cc1=O)CN(Cc1nc(-c3ccco3)no1)CC2 | -10.1%
99 | O=C(NCc1nn(-c2ccccc2)c2c1CCC2)NCC1COCCO1 (stereo not drawn) | -9.01%
100 | CC(C)C(CNC(=O)NCc1cc[nH]n1)N1CCOCC1 (stereo not drawn) | -5.25%
101 | CC(O)CN1CCC(CNCc2ccc(OC(F)(F)F)cc2)CC1 (stereo not drawn) | 5.04%
102 | COc1cccc(CNCC2CCN(CC(C)O)CC2)c1OC (stereo not drawn) | -5.57%
103 | COc1cc(C)nc(N2CCN(C(=O)COC3CCCC3)CC2)n1 | -4.07%
104 | Cc1ccsc1CNC(=O)N1CCC(Cc2cnn(C)c2)C1 (stereo not drawn) | -3.88%
105 | CCc1nccn1C1CCCN(C(=O)COCC(F)(F)F)C1 (stereo not drawn) | -1.33%
106 | Cc1cnn(CC2CCCCN2Cc2cnc(C)s2)c1 (stereo not drawn) | -12.5%
107 | CCCn1nc2c(cc1=O)CN(Cc1nc(-c3ccco3)no1)CC2 | -1.15%
108 | CC(Oc1ccccc1)C(=O)N1CCCN(Cc2cscn2)CC1 (stereo not drawn) | 6.19%
109 | CSCC(=O)N1CCCN(Cc2cscn2)CC1 | -2.64%
110 | COCCN1CCCC1Cn1nc(C)cc1C (stereo not drawn) | 8.46%
111 | CCc1ccc(C(=O)NCc2ccnc(N3CCN(C)CC3)c2)o1 | -7.44%
112 | Cc1cc(C(=O)NCc2ccnc(N3CCN(C)CC3)c2)sc1C | 20.5%
113 | Cc1ccsc1C(=O)NCc1ccnc(N2CCN(C)CC2)c1 | -8.63%
